The results in this text go back to the supplement of paper PMC9549728.

Common to all, as to assay: IC50 (viability, PrestoBlue) (log10 nM)
Common to all, as to conditions: exposure time: 72 h

Experiment [1] relates to murine normal gastric organoid. On the procedure:
(§1)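 Murine gastric corpus organoids (normal uninduced; RAS-activated Kras G12D/Tp53 R172H; diffuse Cdh1/Apc loss; WNT-activated Apc loss/Tp53 R172H) were seeded in Matrigel into pre-spotted 384-well plates. The plates held a 196-compound library at 6.7 nM to 25,004 nM (9 doses) and were incubated 72 h. Viability was read by PrestoBlue fluorescence (560/590 nm). IC50 came from non-linear regression (Prism), reported as log10 IC50 in nM, mean of 3 passages x 2 wells.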

The test system of experiment [2] is murine gastric organoid RAS-activated (Kras G12D; Tp53 R172H). On the procedure: as §1
Experiment [3] relates to murine gastric organoid WNT-activated (Apc fl/fl; Tp53 R172H). On the procedure: as §1
Experiment [4] has as its system murine gastric organoid diffuse (Cdh1 fl/fl; Apc fl/fl). On the procedure: as §1

Where a name gives a salt, the structure may show the parent alone. Some results are limits rather than exact numbers.

Turning to `CCN1CCN(Cc2ccc(Nc3ncc(F)c(-c4cc(F)c5nc(C)n(C(C)C)c5c4)n3)nc2)CC1`, the “IC50 (log10 nM)” value was 2.94 in experiment [1], 2.88 in experiment [2], 2.47 in experiment [3] and 2.7 in experiment [4].
Taken in the same sequence, the figures for `CCNC(=O)C[C@@H]1N=C(c2ccc(Cl)cc2)c2cc(OC)ccc2-n2c(C)nnc21` were 2.77, 3.3, 1.54 and 3.13.
The like results for `COc1ccc(-c2cc3c(C)nc(N)nc3n([C@H]3CC[C@H](OCCO)CC3)c2=O)cn1` were, in that order, 2.08, 2.17, 2.11 and 2.
The like results for `Nc1ncn([C@@H]2O[C@H](CO)[C@@H](O)[C@H]2O)c(=O)n1` [5-Azacytidine] were, in that order, 3.78, 3.64, 3.58 and 3.5.
`Nc1nc(=S)c2[nH]cnc2[nH]1` [6-Thioguanine]: the “IC50 (log10 nM)” value in experiment [1] came to 3.73; in experiment [2] it was 3.8; in experiment [3], 1.35; in experiment [4], 4.29.
The like results for `CC1(C)CCC(CN2CCN(c3ccc(C(=O)NS(=O)(=O)c4ccc(NCC5CCOCC5)c([N+](=O)[O-])c4)c(Oc4cnc5[nH]ccc5c4)c3)CC2)=C(c2ccc(Cl)cc2)C1` [ABT-199] were, in that order, 3.61, 4.06, 3.1 and 4.17.
The like results for `Cc1c2oc3c(C)ccc(C(=O)N[C@@H]4C(=O)N[C@H](C(C)C)C(=O)N5CCC[C@H]5C(=O)N(C)CC(=O)N(C)[C@@H](C(C)C)C(=O)O[C@@H]4C)c3nc-2c(C(=O)N[C@@H]2C(=O)N[C@H](C(C)C)C(=O)N3CCC[C@H]3C(=O)N(C)CC(=O)N(C)[C@@H](C(C)C)C(=O)O[C@@H]2C)c(N)c1=O` [Actinomycin D] were, in that order, less than 0.826, less than 0.826, less than 0.826 and less than 0.826.
Taken in the same sequence, the figures for `CN(C)C/C=C/C(=O)Nc1cc2c(Nc3ccc(F)c(Cl)c3)ncnc2cc1O[C@H]1CCOC1` [Afatinib] were 1.55, 3.6, 1.27 and 1.95.
Take `COc1cc(Nc2ncc3c(n2)-c2ccc(Cl)cc2C(c2c(F)cccc2OC)=NC3)ccc1C(=O)O` [Alisertib]: the “IC50 (log10 nM)” value was 2.47 in experiment [1], 2 in experiment [2], 3.02 in experiment [3] and 2.98 in experiment [4].
The like results for `CN(C)CCN1C(=O)c2cccc3cc(N)cc(c23)C1=O` [Amonafide] were, in that order, 3.1, 3.03, 2.39 and 3.23.
The like results for `CNC(=O)c1ccccc1Sc1ccc2c(/C=C/c3ccccn3)n[nH]c2c1` [Axitinib] were, in that order, 3.98, 3.3, 2.75 and 3.78.
For `O=C(/C=C/c1cccc(S(=O)(=O)Nc2ccccc2)c1)NO` [Belinostat], the “IC50 (log10 nM)” value in experiment [1] was 3.2; in experiment [2], 2.61; in experiment [3], 3.27; in experiment [4] it was 3.29.
Taken in the same sequence, the figures for `Cn1cnc2c(F)c(Nc3ccc(Br)cc3F)c(C(=O)NOCCO)cc21` [Binimetinib] were 2.09, 2.28, 2.96 and 3.03.
With `Cc1c(N)nc([C@H](CC(N)=O)NC[C@H](N)C(N)=O)nc1C(=O)N[C@H](C(=O)N[C@H](C)[C@@H](O)[C@H](C)C(=O)N[C@H](C(=O)NCCc1nc(-c2nc(C(=O)NCCC[S+](C)C)cs2)cs1)[C@@H](C)O)[C@@H](OC1OC(CO)C(O)C(O)C1OC1OC(CO)C(O)C(OC(N)=O)C1O)c1cnc[nH]1` (stereo partly drawn) [Bleomycin], the “IC50 (log10 nM)” value in experiment [1] is 3.85; in experiment [2] it was 3.83; in experiment [3], more than 4.4; in experiment [4] it was 3.57.
Taken in the same sequence, the figures for `CC(C)C[C@H](NC(=O)[C@H](Cc1ccccc1)NC(=O)c1cnccn1)B(O)O` [Bortezomib] were 1.14, 0.871, 1.16 and 1.1.
The like results for `COc1cc(Nc2c(C#N)cnc3cc(OCCCN4CCN(C)CC4)c(OC)cc23)c(Cl)cc1Cl` [Bosutinib] were, in that order, 3.96, 3.57, 3.01 and 3.58.
The like results for `N#CCNC(=O)c1ccc(-c2ccnc(Nc3ccc(N4CCOCC4)cc3)n2)cc1` [CYT387] were, in that order, 3.48, 3.51, 4.05 and 3.58.
For `C=CC(=O)Nc1cc2c(Nc3ccc(F)c(Cl)c3)ncnc2cc1OCCCN1CCOCC1` [Canertinib], the “IC50 (log10 nM)” value in experiment [1] was found to be 2.35; in experiment [2], 3.85; in experiment [3], 2.17; in experiment [4], 2.6.
The like results for `CC(C)C[C@H](NC(=O)[C@H](CCc1ccccc1)NC(=O)CN1CCOCC1)C(=O)N[C@@H](Cc1ccccc1)C(=O)N[C@@H](CC(C)C)C(=O)[C@@]1(C)CO1` [Carfilzomib] were, in that order, 1.16, 1.16, 1.32 and 1.04.
As for `COc1cc2c(Oc3ccc4[nH]c(C)cc4c3F)ncnc2cc1OCCCN1CCCC1` [Cediranib maleate], the “IC50 (log10 nM)” value in experiment [1] was 3.38; in experiment [2], 2.93; in experiment [3] it was less than 0.826; in experiment [4], 2.67.
Taken in the same sequence, the figures for `O=C(O)CCCc1ccc(N(CCCl)CCCl)cc1` [Chlorambucil] were 3.32, 2.93, 3.92 and 2.48.
The like results for `N.N.[Cl][Pt][Cl]` [Cisplatin] were, in that order, 3, 3.54, 3.59 and 3.13.
The like results for `Nc1nc(Cl)nc2c1ncn2[C@H]1C[C@H](O)[C@@H](CO)O1` [Cladribine] were, in that order, 3.19, 3.08, 3.27 and 3.04.
Take `Nc1nc(Cl)nc2c1ncn2[C@@H]1O[C@H](CO)[C@@H](O)[C@@H]1F` [Clofarabine]: the “IC50 (log10 nM)” value in experiment [1] was 3.15; in experiment [2], 3.04; in experiment [3], 3.27; in experiment [4], 2.97.
Taken in the same sequence, the figures for `O=C(c1ccc(F)c(F)c1Nc1ccc(I)cc1F)N1CC(O)([C@@H]2CCCCN2)C1` [Cobimetinib] were 1.45, 1.75, 1.82 and 1.74.
Taken in the same sequence, the figures for `COc1c(OCCCN2CCOCC2)ccc2c1N=C(NC(=O)c1cnc(N)nc1)N1CCN=C21` [Copanlisib] were 1.94, 2, 1.96 and 2.23.
The like results for `C[C@@H](Oc1cc(-c2cnn(C3CCNCC3)c2)cnc1N)c1c(Cl)ccc(F)c1Cl` [Crizotinib] were, in that order, 3.4, 2.96, 2.95 and 3.22.
As for `Nc1ccn([C@@H]2O[C@H](CO)[C@@H](O)[C@@H]2O)c(=O)n1` [Cytarabine], the “IC50 (log10 nM)” value in experiment [1] worked out at 2.33; in experiment [2] it was 2.07; in experiment [3], 2.9; in experiment [4], 2.71.
As for `Cc1nc(Nc2ncc(C(=O)Nc3c(C)cccc3Cl)s2)cc(N2CCN(CCO)CC2)n1` [Dasatinib hydrochloride], the “IC50 (log10 nM)” value is 2.05 in experiment [1], 1.86 in experiment [2], 1.29 in experiment [3] and 2.3 in experiment [4].
Taken in the same sequence, the figures for `COc1cccc2c1C(=O)c1c(O)c3c(c(O)c1C2=O)C[C@@](O)(C(C)=O)C[C@@H]3O[C@H]1C[C@H](N)[C@H](O)[C@H](C)O1` [Daunorubicin hydrochloride] were 1.56, 1.6, 1.73 and 1.77.
Taken in the same sequence, the figures for `Nc1ncn([C@H]2C[C@H](O)[C@@H](CO)O2)c(=O)n1` [Decitabine] were 2.9, more than 4.4, 3.34 and 3.85.
The like results for `CCc1cnn2c(NCc3ccc[n+]([O-])c3)cc(N3CCCC[C@H]3CCO)nc12` [Dinaciclib] were, in that order, more than 4.4, more than 4.4, 4.28 and 4.11.
